The record followed here is ChEMBL document CHEMBL4406842, “Synthesis and in vitro biological evaluation of novel derivatives of Flexicaulin A condensation with amino acid trifluoroacetate” (Eur J Med Chem, 2019).

Series [1] can be described thus: Solubility of compound in water. In kind it is physicochemical. Particulars: buffer.
A further series relates to MCF7. In words: Antiproliferative activity against human MCF7 cells assessed as reduction in cell viability incubated for 72 hrs by SRB assay. In kind it is functional, cell-based. Particulars: MCF7, 72 h.
A further series deals with MGC-803. In words: Antiproliferative activity against human MGC803 cells assessed as reduction in cell viability incubated for 72 hrs by SRB assay. Particulars: MGC-803, 72 h. In kind it is functional, cell-based.
For a further series, the system named is TE-1. Put plainly: Antiproliferative activity against human TE1 cells assessed as reduction in cell viability incubated for 72 hrs by SRB assay. In kind it is functional, cell-based. Particulars: TE-1, 72 h.
The next series relates to A549. Put plainly: Antiproliferative activity against human A549 cells assessed as reduction in cell viability incubated for 72 hrs by SRB assay. In kind it is functional, cell-based. Particulars: A549, 72 h.

`C=C1C(=O)[C@]23[C@H](OC(=O)[C@@H](N)CCCC)[C@H]1C[C@H](O)[C@H]2[C@]1(COC(C)=O)CCCC(C)(C)[C@H]1C[C@H]3OC.O=C(O)C(F)(F)F`: in series [1], the solubility result is “Soluble”. Besides, the IC50 in the series on MCF7 was 2.51 µM; with MGC-803 it was 3.22 µM; in the series with TE-1 it was 2.64 µM; in the series with A549, 1.54 µM.

On to `C=C1C(=O)[C@]23[C@H](OC(=O)[C@H](CCSC)NC(=O)OC(C)(C)C)[C@H]1C[C@H](O)[C@H]2[C@]1(COC(C)=O)CCCC(C)(C)[C@H]1C[C@H]3OC`, for which the solubility entry in series [1] was “Insoluble”. For the same molecule, the IC50 in the series on MCF7 worked out at 2.27 µM; with MGC-803 it was 2.86 µM; with TE-1, 1.33 µM; with A549 it was 4.63 µM.

Take `C=C1C(=O)[C@]23[C@H](OC(=O)CCCCNC(=O)OC(C)(C)C)[C@H]1C[C@H](O)[C@H]2[C@]1(COC(C)=O)CCCC(C)(C)[C@H]1C[C@H]3OC`: the solubility result in series [1] is reported as “Insoluble”. The IC50 was 1.56 µM in the series on MCF7, 3.06 µM with MGC-803, 1.19 µM in the series on TE-1 and 5.64 µM in the series with A549.

As for `C=C1C(=O)[C@]23[C@H](OC(=O)[C@@H](N)c4ccccc4)[C@H]1C[C@H](O)[C@H]2[C@]1(COC(C)=O)CCCC(C)(C)[C@H]1C[C@H]3OC.O=C(O)C(F)(F)F`, the solubility entry in series [1] is recorded as “Soluble”. In addition, the IC50 with MCF7 amounted to 1.11 µM; in the series on MGC-803 it was 1.66 µM; with TE-1, 0.92 µM; in the series with A549, 1.68 µM.

As to `C=C1C(=O)[C@]23[C@H](OC(=O)[C@@H](N)C(C)C)[C@H]1C[C@H](O)[C@H]2[C@]1(COC(C)=O)CCCC(C)(C)[C@H]1C[C@H]3OC.O=C(O)C(F)(F)F`, the solubility result in series [1] is “Soluble”. For the same molecule, the IC50 in the series with MCF7 is 1.27 µM; with MGC-803, 0.99 µM; in the series on TE-1, 1.97 µM; in the series with A549 it was 2.67 µM.

With `C=C1C(=O)[C@]23[C@H](OC(=O)[C@H](C)N)[C@H]1C[C@H](O)[C@H]2[C@]1(COC(C)=O)CCCC(C)(C)[C@H]1C[C@H]3OC.O=C(O)C(F)(F)F`, the solubility entry in series [1] was “Soluble”. The IC50 with MCF7 stood at 7.37 µM; in the series on MGC-803, 10.5 µM; with TE-1, 3.07 µM; in the series with A549, 3.96 µM.

In the case of `C=C1C(=O)[C@]23[C@H](OC(=O)[C@@H]4CCCCN4)[C@H]1C[C@H](O)[C@H]2[C@]1(COC(C)=O)CCCC(C)(C)[C@H]1C[C@H]3OC.O=C(O)C(F)(F)F`, the solubility entry in series [1] was “Soluble”. Besides, the IC50 in the series on MCF7 came to 3.49 µM; in the series on MGC-803, 7.15 µM; in the series with TE-1, 3.16 µM; in the series with A549, 2.84 µM.

Consider `C=C1C(=O)[C@]23[C@H](OC(=O)[C@H](CCCC)NC(=O)OC(C)(C)C)[C@H]1C[C@H](O)[C@H]2[C@]1(COC(C)=O)CCCC(C)(C)[C@H]1C[C@H]3OC`, for which, in series [1], the solubility entry is on record as “Insoluble”. Also, the IC50 in the series with MCF7 was found to be 4.42 µM; in the series with MGC-803 it was 11.2 µM; with TE-1 it was 4.49 µM; in the series with A549, 11 µM.

Regarding `C=C1C(=O)[C@]23[C@H](OC(=O)[C@H](C(C)C)N(C)C(=O)OC(C)(C)C)[C@H]1C[C@H](O)[C@H]2[C@]1(COC(C)=O)CCCC(C)(C)[C@H]1C[C@H]3OC`, the solubility result in series [1] is reported as “Insoluble”. Further, the 50% inhibitory concentration (IC50) with MCF7 is 7.1 µM; in the series with MGC-803, 5.47 µM; with TE-1, 5.41 µM; with A549 it was 9.5 µM.

In the case of `C=C1C(=O)[C@]23[C@H](OC(=O)[C@H](CCC)NC(=O)OC(C)(C)C)[C@H]1C[C@H](O)[C@H]2[C@]1(COC(C)=O)CCCC(C)(C)[C@H]1C[C@H]3OC`, the solubility result in series [1] is reported as “Insoluble”. For the same molecule, the IC50 was 2.59 µM in the series with MCF7, 4.93 µM in the series on MGC-803, 1.82 µM with TE-1 and 6.81 µM in the series with A549.

For the molecule `C=C1C(=O)[C@]23[C@H](OC(=O)CNC)[C@H]1C[C@H](O)[C@H]2[C@]1(COC(C)=O)CCCC(C)(C)[C@H]1C[C@H]3OC.O=C(O)C(F)(F)F`, the solubility entry in series [1] is given as “Soluble”. For the same molecule, the half-inhibitory concentration (IC50) in the series on MCF7 came to 3.62 µM; in the series on MGC-803 it was 5.35 µM; with TE-1 it was 3.19 µM; with A549, 5.86 µM.

As for `C=C1C(=O)[C@@]23[C@H](O)C[C@@H]4C(C)(C)CCC[C@@]4(COC(C)=O)[C@@H]2[C@@H](O)C[C@@H]1[C@H]3O` [FLEXICANLIN A], the solubility result in series [1] was “Insoluble”. Besides, the IC50 in the series with MCF7 turned out to be 5.45 µM; with MGC-803 it was 9.94 µM; in the series with TE-1 it was 5.07 µM; in the series on A549, 6.77 µM.

On to `C=C1C(=O)[C@]23[C@H](OC(=O)[C@@H](N)CCCCN)[C@H]1C[C@H](O)[C@H]2[C@]1(COC(C)=O)CCCC(C)(C)[C@H]1C[C@H]3OC.O=C(O)C(F)(F)F.O=C(O)C(F)(F)F`, for which, in series [1], the solubility result was “Soluble”. Moreover, the IC50 was found to be 22.2 µM with MCF7, 9.52 µM in the series on MGC-803, 14.3 µM with TE-1 and 5.86 µM in the series with A549.

Turning to `C=C1C(=O)[C@]23[C@H](OC(=O)[C@@H]4CCCN4)[C@H]1C[C@H](O)[C@H]2[C@]1(COC(C)=O)CCCC(C)(C)[C@H]1C[C@H]3OC.O=C(O)C(F)(F)F`, in series [1], the solubility result is given as “Soluble”. Moreover, the IC50 was determined as 5.1 µM in the series on MCF7, 5.02 µM with MGC-803, 4.28 µM with TE-1 and 7.51 µM with A549.

Turning to `C=C1C(=O)[C@]23[C@H](OC(=O)CN)[C@H]1C[C@H](O)[C@H]2[C@]1(COC(C)=O)CCCC(C)(C)[C@H]1C[C@H]3OC.O=C(O)C(F)(F)F`, in series [1], the solubility result is “Soluble”. The IC50 was 2.57 µM in the series on MCF7, 3.15 µM with MGC-803, 1.85 µM in the series on TE-1 and 3.86 µM in the series on A549.

For `C=C1C(=O)[C@]23[C@H](OC(=O)[C@@H]4CCCN4C(=O)OC(C)(C)C)[C@H]1C[C@H](O)[C@H]2[C@]1(COC(C)=O)CCCC(C)(C)[C@H]1C[C@H]3OC`, in series [1], the solubility result is given as “Insoluble”. Further, the IC50 in the series on MCF7 is 3.7 µM; in the series on MGC-803 it was 2.81 µM; in the series with TE-1, 2.78 µM; in the series with A549, 5.9 µM.

Take `C=C1C(=O)[C@]23[C@H](OC(=O)[C@@H](N)CCC)[C@H]1C[C@H](O)[C@H]2[C@]1(COC(C)=O)CCCC(C)(C)[C@H]1C[C@H]3OC.O=C(O)C(F)(F)F`: the solubility entry in series [1] was “Soluble”. For the same molecule, the IC50 with MCF7 came to 4.57 µM; in the series with MGC-803, 4.94 µM; in the series with TE-1, 1.72 µM; in the series on A549 it was 1.64 µM.

Take `C=C1C(=O)[C@]23[C@H](OC(=O)[C@@H](N)CCSC)[C@H]1C[C@H](O)[C@H]2[C@]1(COC(C)=O)CCCC(C)(C)[C@H]1C[C@H]3OC.O=C(O)C(F)(F)F`: in series [1], the solubility entry is recorded as “Soluble”. The IC50 in the series on MCF7 amounted to 3.1 µM; in the series on MGC-803 it was 3.66 µM; in the series on TE-1 it was 1.6 µM; in the series with A549, 1.96 µM.

Take `C=C1C(=O)[C@]23[C@H](OC(=O)[C@H](C)NC)[C@H]1C[C@H](O)[C@H]2[C@]1(COC(C)=O)CCCC(C)(C)[C@H]1C[C@H]3OC.O=C(O)C(F)(F)F`: the solubility result in series [1] is listed as “Soluble”. The IC50 with MCF7 was 5.03 µM; in the series on MGC-803, 6.34 µM; in the series on TE-1 it was 3.32 µM; with A549 it was 2.79 µM.
